These results are taken from US11827616B2, “Heterocyclic compounds as pesticides” (Discovery Purchaser Corporation, priority 2018, dated 2023).

Usually mortality stands for the percentage killed.

Common to all, as to format: in vivo
Assay [1] has as its system Ctenocephalides felis. Description: Ctenocephalides felis in vitro contact test with adult cat fleas. Conditions: application rate 5 μg/cm^2 (=500 g/ha); after 48 h. The procedure:
Ctenocephalides felis—In Vitro Contact Tests with Adult Cat Fleas
(§1) For the coating of the test tubes, 9 mg of active compound are first dissolved in 1 ml of acetone p.a. and then diluted to the desired concentration with acetone p.a. 250 μl of the solution are distributed homogeneously on the inner walls and the base of a 25 ml glass tube by turning and rocking on an orbital shaker (rocking rotation at 30 rpm for 2 h). With 900 ppm of active compound solution and internal surface area 44.7 cm^2, given homogeneous distribution, an area-based dose of 5 μg/cm^2 is achieved.
After the solvent has evaporated off, the tubes are populated with 5-10 adult cat fleas (Ctenocephalides felis), sealed with a perforated plastic lid and incubated in a horizontal position at room temperature and ambient humidity. After 48 h, efficacy is determined. To this end, the tubes are stood upright and the fleas are knocked to the base of the tube. Fleas which remain motionless at the base or move in an uncoordinated manner are considered to be dead or moribund.
100% efficacy means that all the fleas were dead or moribund. 0% efficacy means that no fleas were harmed.

Assay [2] relates to Boophilus microplus. Description: Boophilus microplus injection test. The note with it: application rate 20 μg/animal, after 7 days; for pest or weed control at 0.02 mg: Rhipicephalus microplus, 168 h, read-out: efficacy (laying of fertile eggs). The procedure:
Boophilus microplus—Injection Test
(§2) Solvent: dimethyl sulfoxide
To produce a suitable active compound formulation, 10 mg of active compound are mixed with 0.5 ml of solvent and the concentrate is diluted to the desired concentration with solvent.
1 μl of the active compound solution is injected into the abdomen of 5 engorged adult female cattle ticks (Boophilus microplus). The animals are transferred into dishes and kept in a climate-controlled room.
Efficacy is assessed after 7 days by laying of fertile eggs. Eggs which are not visibly fertile are stored in a climate-controlled cabinet until the larvae hatch after about 42 days. An efficacy of 100% means that none of the ticks has laid any fertile eggs; 0% means that all the eggs are fertile.

Assay [3] deals with Phaedon cochleariae. Description: Phaedon cochleariae spray test. Conditions: application rate 500 g/ha; after 7 days. The procedure:
Phaedon cochleariae—Spray Test
(§3) Solvent: 78.0 parts by weight of acetone • • 1.5 parts by weight of dimethylformamide
(§4) Emulsifier: alkylaryl polyglycol ether
(§5) To produce a suitable active compound formulation, 1 part by weight of active compound is dissolved with the specified parts by weight of solvent and made up to the desired concentration with water containing an emulsifier concentration of 1000 ppm. To produce further test concentrations, the formulation is diluted with emulsifier-containing water.
Discs of Chinese cabbage leaves (Brassica pekinensis) are sprayed with an active compound formulation of the desired concentration and, after drying, populated with larvae of the mustard beetle (Phaedon cochleariae).
After 7 days, the efficacy in % is determined. 100% means that all the beetle larvae have been killed; 0% means that no beetle larvae have been killed.

Assay [4] concerns Spodoptera frugiperda. The assay can be described thus: Spodoptera frugiperda spray test. The note with it: application rate 500 g/ha, after 7 days. The protocol:
Spodoptera frugiperda—Spray Test
as §3, §4, §5
Leaf discs of maize (Zea mays) are sprayed with an active compound formulation of the desired concentration and, after drying, populated with caterpillars of the fall armyworm (Spodoptera frugiperda).
After 7 days, the efficacy in % is determined. 100% means that all the caterpillars have been killed; 0% means that no caterpillar has been killed.

Assay [5] concerns Tetranychus urticae. Description: Tetranychus urticae spray test, OP-resistant. Conditions: after 6 days. The protocol:
Tetranychus urticae—Spray Test, OP-Resistant
Solvent: 78.0 Parts by Weight of Acetone • • 1.5 parts by weight of dimethylformamide
as §4, §5
Discs of bean leaves (Phaseolus vulgaris) infested with all stages of the greenhouse red spider mite (Tetranychus urticae) are sprayed with an active compound formulation of the desired concentration.
After 6 days, the efficacy in % is determined. 100% means that all the spider mites have been killed; 0% means that no spider mites have been killed.

The subject of assay [6] is Rhipicephalus sanguineus. Description: Rhipicephalus sanguineus in vitro contact test with adult brown dog ticks. Conditions: application rate 5 μg/cm^2 (=500 g/ha); after 48 h. The procedure:
Rhipicephalus sanguineus—In Vitro Contact Tests with Adult Brown Dog Ticks
as §1
After the solvent has evaporated off, the tubes are populated with 5-10 adult dog ticks (Rhipicephalus sanguineus), sealed with a perforated plastic lid and incubated in a horizontal position in the dark at room temperature and ambient humidity. After 48 h, efficacy is determined. To this end, the ticks are knocked to the base of the tube and incubated on a hotplate at 45-50° C. for not more than 5 min. Ticks which remain motionless on the base or move in such an uncoordinated manner that they are unable to deliberately avoid the heat by climbing upwards are considered to be dead or moribund.
An efficacy of 100% means that all the ticks were dead or moribund. 0% efficacy means that none of the ticks were harmed.

In assay [7] the test system is Lucilia cuprina. The assay can be described thus: Lucilia cuprina test. The note with it: application rate 100 ppm; L1 larvae; after 2 days. The procedure:
as §2
To produce a suitable active compound formulation, 10 mg of active compound are mixed with 0.5 ml of dimethyl sulfoxide, and the concentrate is diluted with water to the desired concentration.
About 20 L1 larvae of the Australian sheep blowfly (Lucilia cuprina) are transferred into a test vessel containing minced horsemeat and the active compound formulation of the desired concentration.
After 2 days, the kill in % is determined. 100% means that all the larvae have been killed; 0% means that no larvae have been killed.

Assay [8] concerns Ctenocephalides felis. Description: Ctenocephalides felis oral test. The note with it: application rate 100 ppm in citrated cattle blood; after 2 days. The protocol:
Ctenocephalides felis—Oral Test
as §2
To produce a suitable active compound formulation, 10 mg of active compound are mixed with 0.5 ml of dimethyl sulfoxide. Dilution with citrated cattle blood gives the desired concentration.
About 20 unfed adult cat fleas (Ctenocephalides felis) are placed into a chamber which is closed at the top and bottom with gauze. A metal cylinder whose bottom end is closed with parafilm is placed onto the chamber. The cylinder contains the blood/active compound formulation, which can be imbibed by the fleas through the parafilm membrane.
After 2 days, the kill in % is determined. 100% means that all of the fleas have been killed; 0% means that none of the fleas have been killed.

In assay [9] the test system is Anopheles gambiae strain RSPH (homozygot kdr). The assay can be described thus: Anopheles test (ANPHGB surface treatment). The note with it: 24 hours after contact, read-out: efficacy (mortality in %). The procedure: Anopheles Test (ANPHGB Surface Treatment)
Solvent: acetone+2000 ppm rapeseed oil methyl ester (RME)
To produce an appropriate active compound formulation, the active compound is dissolved in the solvent (2 mg/ml). The active compound formulation is pipetted onto a glazed tile and, after it has dried off, adult mosquitoes of the species Anopheles gambiae strain RSPH (homozygot kdr) are placed onto the treated tile. The exposure time is 30 minutes.
24 hours after contact with the treated surface, mortality in % is determined. 100% means that all mosquitoes have been killed; 0% means that none of the mosquitoes have been killed.

Each structure is given as a SMILES string.

In the case of `CC(C)N(C)CCOc1cnc(COc2cccc3c(Cl)c(Cl)ccc23)c(F)c1` [Example 44], the “efficacy (fleas dead or moribund)” value in [1] came out at 100%. The “efficacy (laying of fertile eggs)” value in assay [2] came out at 100%. Besides, the results for the efficacy in assay [3], in assay [4] and in assay [5] (application rate 100 g/ha) were 100%, 100% and 90%, respectively.
In the case of `CON(C)CCOc1cnc(COc2cccc(-c3ccccc3)c2)c(F)c1` [Example 70], in assay [1], the “efficacy (fleas dead or moribund)” value was 100%. The “efficacy (ticks dead or moribund)” value in [6] came out at 100%. In addition, in assay [2], the “efficacy (laying of fertile eggs)” value is given as 100%. In [7], the “efficacy (kill in %)” value is 100%. Also, the efficacy in [3] amounted to 100%; in [5] (application rate 500 g/ha), 90%.
Consider `CON(C)CCOc1ccc(COc2cccc3c(Cl)c(Cl)ccc23)cn1` [Example 1], for which the “efficacy (fleas dead or moribund)” value in [1] is 100%. Also, the “efficacy (ticks dead or moribund)” value in [6] amounted to 100%. The “efficacy (laying of fertile eggs)” value in [2] was 100%. For the same compound, in assay [7], the “efficacy (kill in %)” value is recorded as 100%. Moreover, the efficacy in assay [3], in [4] and in [5] (application rate 500 g/ha) was 100% throughout.
As for `CN(CCOc1cnc(COc2ccc(F)c(-c3cccc(OC(F)(F)F)c3)c2)c(F)c1)C(C)(C)C` [Example 51], the values for the efficacy in assay [3], in assay [4] and in [5] (application rate 500 g/ha) were 83%, 100% and 100%, respectively.
Regarding `CN(CCOc1cnc(COc2ccc3oc4ccccc4c3c2)c(F)c1)C(C)(C)C` [Example 34], in assay [2], the “efficacy (laying of fertile eggs)” value came to 80%. For the same compound, the efficacy is 100% in [3], 100% in assay [4] and 90% in assay [5] (application rate 500 g/ha).
`CON(C)CCOc1cnc(COc2ccc(Cl)c(OC(F)(F)F)c2)c(F)c1` [Example 72]: in assay [1], the “efficacy (fleas dead or moribund)” value was 100%. For the same compound, the “efficacy (ticks dead or moribund)” value in assay [6] came to 100%. Moreover, in assay [2], the “efficacy (laying of fertile eggs)” value is reported as 100%. In addition, the “efficacy (kill in %)” value in assay [8] was found to be 95%; in assay [7] it was 100%. Further, the efficacy came to 83% in [4] and 100% in assay [5] (application rate 500 g/ha).
`CON(C)CCOc1ccc(COc2cccc(-c3cccc(OC(F)(F)F)c3)c2)nc1` [Example 64]: the “efficacy (fleas dead or moribund)” value in assay [1] stood at 100%. Moreover, in assay [6], the “efficacy (ticks dead or moribund)” value is 100%. In addition, the “efficacy (laying of fertile eggs)” value in assay [2] is given as 100%. Further, the efficacy in [3] is reported as 100%; in assay [4] it was 83%; in assay [5] (application rate 500 g/ha), 90%.
For `CCN(CC)CCOc1cnc(COc2cccc3c(Cl)c(Cl)ccc23)c(F)c1` [Example 32, 2-[(6-{[(5,6-dichloro-1-naphthyl)oxy]methyl}-5-fluoropyridin-3-yl)oxy]-N,N-diethylethanamine], the “efficacy (fleas dead or moribund)” value in assay [1] was found to be 100%. Also, in assay [2], the pest or weed control at 0.02 mg came to 100%. Also, the pest or weed control at 500 g/ha in assay [4] (Spodoptera frugiperda, 168 h, read-out: efficacy) was determined as 100%. In assay [5] (application rate 500 g/ha), this compound gave an efficacy of 90%.
For the compound `CON(C)CCOc1ccc(COc2ccc(F)c(-c3cccc(Cl)c3)c2)nc1` [Example 65], the “efficacy (fleas dead or moribund)” value in assay [1] is on record as 100%. In [6], the “efficacy (ticks dead or moribund)” value was found to be 100%. In assay [2], the “efficacy (laying of fertile eggs)” value was 100%. Further, in assay [7], the “efficacy (kill in %)” value came to 90%. The efficacy in assay [4] and in assay [5] (application rate 500 g/ha) was 100% each time.
Turning to `CON(C)CCOc1cnc(COc2ccc(F)c(-c3cccc(Cl)c3)c2)c(F)c1` [Example 49], in assay [1], the “efficacy (fleas dead or moribund)” value was determined as 100%. Moreover, in assay [6], the “efficacy (ticks dead or moribund)” value is reported as 100%. The “efficacy (laying of fertile eggs)” value in [2] is recorded as 100%. For the same compound, the “efficacy (kill in %)” value in assay [7] came out at 100%. Besides, the efficacy in assay [3], in assay [4] and in assay [5] (application rate 500 g/ha) was 100% each time.
Take `CON(C)CCOc1ccc(COc2cccc3c(Cl)c(Cl)ccc23)nc1F` [Example 17, 2-[(6-{[(5,6-dichloro-1-naphthyl)oxy]methyl}-2-fluoropyridin-3-yl)oxy]-N-methoxy-N-methylethanamine]: the pest or weed control at 0.02 mg in [2] was 100%. The mortality at 20 mg/m2 in [9] (application rate 20 mg/m^2, exposure 30 minutes) was in the range of 80 to 100%. Also, the mortality at 100 mg/m2 in assay [9] (application rate 100 mg/m^2, exposure 30 minutes) was 80 to 100%.
As for `CON(C)CCOc1cnc(COc2ccc(Cl)c(I)c2)c(F)c1` [Example 76], the “efficacy (fleas dead or moribund)” value in assay [1] was 100%. In addition, the “efficacy (ticks dead or moribund)” value in [6] is listed as 100%. Further, the “efficacy (laying of fertile eggs)” value in assay [2] was found to be 100%. The efficacy in [3] turned out to be 100%; in assay [5] (application rate 100 g/ha) it was 90%.
Take `CON(C)CCOc1cnc(COc2ccc(Cl)c(-c3cccc(Cl)c3)c2)c(F)c1` [Example 56]: in assay [1], the “efficacy (fleas dead or moribund)” value was 100%. Also, the “efficacy (ticks dead or moribund)” value in assay [6] is 100%. The “efficacy (laying of fertile eggs)” value in [2] is recorded as 100%. Moreover, in [7], the “efficacy (kill in %)” value is 100%. The efficacy in [3], in assay [4] and in [5] (application rate 500 g/ha) was 100% in each case.
Consider `CON(C)CCOc1ccc(COc2cccc(-c3ccccc3)c2)cn1` [Example 13], for which the “efficacy (fleas dead or moribund)” value in assay [1] is on record as 100%. In addition, in assay [6], the “efficacy (ticks dead or moribund)” value came to 100%. In addition, the “efficacy (laying of fertile eggs)” value in assay [2] is listed as 100%. Moreover, the values for the efficacy in assay [3] and in assay [5] (application rate 500 g/ha) were 100% and 90%, respectively.
For the compound `CN(CC#N)CCOc1cnc(COc2ccc(Cl)c3ccccc23)c(F)c1` [Example 27], in assay [6], the “efficacy (ticks dead or moribund)” value is reported as 100%. The “efficacy (laying of fertile eggs)” value in [2] was found to be 100%. In addition, the efficacy in [3] is recorded as 100%; in [4] it was 100%; in assay [5] (application rate 500 g/ha), 90%.
